What is called EC50 is the midpoint of the concentration-response curve. What is called melting point is the temperature of the solid-liquid transition.

The structures appear in SMILES notation. Some results are limits rather than exact numbers.

One data set is described as follows: in vitro. Conditions: dog.
For data set [1], the system named is influenza A/New York/469/2004-like flu (H3N2) virus. The data set is described as follows: microbe, parasite or virus in culture. To be noted: H3N2, MDCK, read-out: EC50 (μM), H3N2.
Data set [2] shares this test system. The data set is described as follows: in vitro. To be noted: dog.
The mark [3] stands for this setting: CC50 (μM), Table 4 (H3N2 series), MDCK cells.

As for `COc1c(O)cc2oc(-c3ccc(Br)cc3)cc(=O)c2c1O` [Compound 5c, 2-(4-Bromophenyl)-5,7-dihydroxy-6-methoxy-4H-chromen-4-one], the melting point lay within 275 to 276 °C. This molecule also gave a CC50 in the data set “in vitro” (setting [3]) of over 300 µM. The EC50 in data set [1] was 34.5 µM. The selectivity ratio at 24 h in data set [2] is over 8.7.

Turning to `COc1c(O)cc2oc(-c3ccccc3Br)cc(=O)c2c1O` [Compound 5a, 2-(2-Bromophenyl)-5,7-dihydroxy-6-methoxy-4H-chromen-4-one], the CC50 in the data set “in vitro” (setting [3]) was over 300 µM. Besides, in data set [1], the EC50 is 17.3 µM. For the same molecule, in data set [2], the selectivity ratio at 24 h was over 17.3.

`COc1cc2oc(-c3cccc(Br)c3)cc(=O)c2c(OC)c1OC` [Compound 2l, 2-(3-Bromophenyl)-5,6,7-trimethoxy-4H-chromen-4-one] registered a melting point of 190 to 191 °C. For the same molecule, the CC50 in “in vitro” (setting [3]) was determined as 64.1 µM. Besides, the EC50 in data set [1] was found to be 128 µM. In addition, the selectivity ratio at 24 h in data set [2] is 0.5.

As to `O=c1cc(-c2cccc(Br)c2)oc2cc(O)c(O)c(O)c12` [Compound 6b, 2-(3-Bromophenyl)-5,6,7-trihydroxy-4H-chromen-4-one], the melting point lay in the range of 255 to 256 °C. Further, the CC50 in the data set “in vitro” (setting [3]) was over 300 µM. Also, the EC50 in data set [1] worked out at 35.9 µM. Further, the selectivity ratio at 24 h in data set [2] is over 8.4.

Molecule `COc1c(O)cc2oc(-c3cccc(Br)c3)cc(=O)c2c1O` [Compound 5b, 2-(3-Bromophenyl)-5,7-dihydroxy-6-methoxy-4H-chromen-4-one] had a CC50 in “in vitro” (setting [3]) of over 300 µM. In data set [1], the half-maximal effective concentration (EC50) was determined as 17.3 µM. For the same molecule, in data set [2], the selectivity ratio at 24 h was over 17.3.

For the molecule `O=c1cc(-c2ccc(Br)cc2)oc2cc(O)c(O)c(O)c12` [Compound 6c, 2-(4-Bromophenyl)-5,6,7-trihydroxy-4H-chromen-4-one], the CC50 in “in vitro” (setting [3]) was over 300 µM. Further, the EC50 in data set [1] was determined as 35.9 µM. Moreover, in data set [2], the selectivity ratio at 24 h was over 8.4.

Molecule `COc1cc2oc(-c3ccc(Br)cc3)cc(=O)c2c(OC)c1OC` [Compound 2m, 2-(4-Bromophenyl)-5,6,7-trimethoxy-4H-chromen-4-one] displayed a melting point of 165 to 166 °C. The molecule also displayed a CC50 in “in vitro” (setting [3]) of over 300 µM.

Consider `COc1cc2oc(-c3ccccc3Br)cc(=O)c2c(OC)c1OC` [Compound 2k, 2-(2-Bromophenyl)-5,6,7-trimethoxy-4H-chromen-4-one], for which the melting point is 122 to 123 °C. This molecule registered a CC50 in the data set “in vitro” (setting [3]) of 128 µM. The EC50 in data set [1] came to 64.1 µM. Also, in data set [2], the selectivity ratio at 24 h worked out at 2.

Regarding `O=c1cc(-c2ccccc2)oc2cc(O)c(O)c(O)c12` [Baicalein, reference compound], the CC50 in “in vitro” (setting [3]) was over 300 µM. Also, the EC50 in data set [1] worked out at 92.3 µM. The selectivity ratio at 24 h in data set [2] was over 3.3.

The molecule `COc1cc2oc(-c3cccc(Br)c3)cc(=O)c2c(O)c1OC` [Compound 4b, 2-(3-Bromophenyl)-5-hydroxy-6,7-dimethoxy-4H-chromen-4-one] showed a melting point of 188 to 189 °C. The CC50 in “in vitro” (setting [3]) worked out at 66.5 µM. Besides, in data set [1], the EC50 came out at 133 µM. The selectivity ratio at 24 h in data set [2] worked out at 0.5.

In the data set “in vitro”, `CCOC(=O)C1=C[C@@H](OC(CC)CC)[C@H](NC(C)=O)[C@@H](N)C1` [oseltamivir, reference compound] returned a CC50 of 320 µM.

The molecule `O=C(O)[C@H]1O[C@@H](Oc2cc3oc(-c4ccccc4)cc(=O)c3c(O)c2O)[C@H](O)[C@@H](O)[C@@H]1O` [Baicalin, reference compound] returned a CC50 in “in vitro” (setting [3]) of over 300 µM. In addition, the EC50 in data set [1] was 104 µM. In addition, the selectivity ratio at 24 h in data set [2] is over 2.9.

`COc1cc2oc(-c3ccccc3Br)cc(=O)c2c(O)c1OC` [Compound 4a, 2-(2-Bromophenyl)-5-hydroxy-6,7-dimethoxy-4H-chromen-4-one] registered a melting point of 221 to 222 °C. In “in vitro” (setting [3]), this molecule gave a CC50 of 200 µM. Also, the EC50 in data set [1] worked out at 133 µM. The selectivity ratio at 24 h in data set [2] stood at 1.5.

Consider `NC(=O)c1ncn([C@@H]2O[C@H](CO)[C@@H](O)[C@H]2O)n1` [Ribavirin, reference compound], for which the CC50 in the data set “in vitro” (setting [3]) is over 300 µM. Besides, the half-maximal effective concentration (EC50) in data set [1] was 25.6 µM. Further, the selectivity ratio at 24 h in data set [2] was over 11.7.

Consider `O=c1cc(-c2ccccc2Br)oc2cc(O)c(O)c(O)c12` [Compound 6a, 2-(2-Bromophenyl)-5,6,7-trihydroxy-4H-chromen-4-one], for which the melting point was in the range of 249 to 251 °C. Moreover, in the data set “in vitro” (setting [3]), the CC50 is over 300 µM. In addition, the EC50 in data set [1] was found to be 71.8 µM. In addition, in data set [2], the selectivity ratio at 24 h was over 4.2.

For `COc1cc2oc(-c3ccc(Br)cc3)cc(=O)c2c(O)c1OC` [Compound 4c, 2-(4-Bromophenyl)-5-hydroxy-6,7-dimethoxy-4H-chromen-4-one], the melting point was in the range of 206 to 208 °C. Also, in “in vitro” (setting [3]), the CC50 was over 300 µM.

The record behind these values is patent publication US20150329515A1, “COMPOSITION AND METHOD FOR TREATING OR PREVENTING INFLUENZA VIRUS INFECTION” (National Defense Medical Center, priority 2014, published 2015).
